pEC50, pIC50: −log10 of the molar value. Values after ≈ are worked out from the molar mass of the structure shown. Active and inactive are the calls of the source. The rule behind the calls is not given here.
Key:
[1] = Protein binding in human plasma; assay type: ADME, cell-free; settings: read-out: PPB (converted)
[2] = Clearance in rat at 1 mg/kg; assay type: ADME, organism-based; settings: in vivo
[3] = Antagonist activity at rat TRPA1 expressed in CHO cells assessed as cinnamaldehyde-induced calcium flux measured after 90 mins by FLIPR assay; assay type: cell-based; settings: 1.5 h
[4] = Metabolic stability in human liver microsomes assessed as clearance by LC/MS-MS analysis; assay type: ADME, Microsome
[5] = Metabolic stability in rat hepatocytes assessed as clearance; assay type: ADME, cell-based, Hepatocyte
Cytochrome P450 2D6 = Cytochrome P450 2D6 (Homo sapiens, UniProt P10635); assay: Inhibition of CYP2D6 (unknown origin); assay type: ADME
Nav1.5 = Nav1.5 (Homo sapiens, UniProt Q14524); assay: Inhibition of Nav1.5 (unknown origin) at 10 uM
[6] = Oral bioavailability in rat at 1 mg/kg; assay type: ADME, organism-based; settings: in vivo
[7] = Inhibition of guinea pig TRPA1; parameters: species or system Cavia porcellus
[8] = biological target: Transient receptor potential cation channel subfamily A member 1 (Rattus norvegicus) (UniProt Q6RI86); assay: In vivo antagonist activity at TRPA1 in AITC-induced rat pain model assessed as nocifensive behaviour at 7.95 ratio of free plasma concentration to IC50 for rat […]; assay type: functional, organism-based; settings: concentration not given here
Rattus norvegicus = species: Rattus norvegicus; assay: Antinociceptive activity against AITC-induced rat pain model assessed as nocifensive behaviour by measuring unbound concentration; assay type: functional, organism-based
Cavia porcellus = assay: Antiinflammatory activity against ovalbumin-induced po dosed Hartley guinea pig asthma model assessed as reduction in BAL fluid infiltrate in the airway treated 2 hrs before and 8 hrs after 28 days of ovalbumin challenge measured after 24 hrs; assay type: functional, organism-based
[9] = Kinetic solubility of the compound; assay type: physicochemical; settings: read-out: Kinetic_solubility
[10] = biological target: Transient receptor potential cation channel subfamily A member 1 (Rattus norvegicus) (UniProt Q6RI86); assay: In vivo antagonist activity at TRPA1 in AITC-induced rat pain model assessed as nocifensive behaviour at 24.47 ratio of free plasma concentration to IC50 for rat […]; assay type: functional, organism-based; settings: concentration not given here
[11] = biological target: Transient receptor potential cation channel subfamily A member 1 (Rattus norvegicus) (UniProt Q6RI86); assay: In vivo antagonist activity at TRPA1 in AITC-induced rat pain model assessed as nocifensive behaviour at 2.18 ratio of free plasma concentration to IC50 for rat […]; assay type: functional, organism-based; settings: concentration not given here
[12] = Metabolic stability in rat liver microsomes assessed as clearance by LC/MS-MS analysis; assay type: ADME, Microsome
[13] = Half life in rat at 1 mg/kg; assay type: ADME, organism-based; settings: in vivo
[14] = Apparent permeability across apical to basolateral side in MDCK cells; assay type: ADME, cell-based, Canis lupus familiaris; settings: dog, read-out: permeability
[15] = Lipophilicity, logD of compound; assay type: physicochemical; settings: octanol/water
[16] = biological target: T1, Short transient receptor potential channel 6 (Homo sapiens) (UniProt Q9Y210); assay: Inhibition of human TRPC6 expressed in HEK293F cells assessed as inhibition of carbachol-induced calcium response up to 20 uM; assay type: cell-based
T1 sequence (whole entry): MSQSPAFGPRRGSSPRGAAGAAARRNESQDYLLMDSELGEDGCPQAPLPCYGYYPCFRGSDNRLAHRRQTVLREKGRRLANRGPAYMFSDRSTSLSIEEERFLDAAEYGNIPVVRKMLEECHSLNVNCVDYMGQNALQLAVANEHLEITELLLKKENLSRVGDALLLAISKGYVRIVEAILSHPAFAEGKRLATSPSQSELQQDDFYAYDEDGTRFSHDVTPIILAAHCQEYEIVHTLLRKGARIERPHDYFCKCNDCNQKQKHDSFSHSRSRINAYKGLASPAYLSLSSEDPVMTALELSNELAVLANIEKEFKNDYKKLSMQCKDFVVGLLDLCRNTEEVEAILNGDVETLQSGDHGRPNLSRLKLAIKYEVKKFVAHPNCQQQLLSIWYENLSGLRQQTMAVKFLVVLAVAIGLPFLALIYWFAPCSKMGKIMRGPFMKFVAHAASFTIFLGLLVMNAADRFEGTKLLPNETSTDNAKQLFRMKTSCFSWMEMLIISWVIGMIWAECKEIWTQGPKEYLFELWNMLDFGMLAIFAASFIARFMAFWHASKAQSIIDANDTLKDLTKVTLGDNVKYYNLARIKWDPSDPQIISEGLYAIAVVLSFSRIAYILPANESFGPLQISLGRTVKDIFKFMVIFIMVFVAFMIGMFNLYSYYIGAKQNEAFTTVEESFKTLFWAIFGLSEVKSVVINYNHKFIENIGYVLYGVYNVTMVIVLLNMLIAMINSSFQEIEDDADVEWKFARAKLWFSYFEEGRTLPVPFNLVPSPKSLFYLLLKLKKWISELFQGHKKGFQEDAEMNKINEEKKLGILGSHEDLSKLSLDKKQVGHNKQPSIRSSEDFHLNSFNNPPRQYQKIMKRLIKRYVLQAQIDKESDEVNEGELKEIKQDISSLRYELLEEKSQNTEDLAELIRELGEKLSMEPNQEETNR

[17] = biological target: Transient receptor potential cation channel subfamily A member 1 (Rattus norvegicus) (UniProt Q6RI86); assay: In vivo antagonist activity at TRPA1 in AITC-induced rat pain model assessed as nocifensive behaviour at 93.41 ratio of free plasma concentration to IC50 for rat […]; assay type: functional, organism-based; settings: concentration not given here
[18] = Protein binding in rat plasma; assay type: ADME, cell-free; settings: read-out: PPB (converted)
[19] = Unbound Volume of distribution at steady state in rat at 1 mg/kg; assay type: ADME, organism-based; settings: in vivo
[20] = Antagonist activity at human TRPA1 expressed in CHO cells assessed as cinnamaldehyde-induced calcium flux measured after 90 mins by FLIPR assay; assay type: cell-based; settings: 1.5 h
[21] = biological target: Transient receptor potential cation channel subfamily M member 8 (Homo sapiens) (UniProt Q7Z2W7); assay: Inhibition of human TRPM8 expressed in HEK293F cells assessed as inhibition of […]-induced calcium response up to 20 uM; assay type: cell-based
Cytochrome P450 3A4 = Cytochrome P450 3A4 (Homo sapiens, UniProt P08684); assay: Inhibition of CYP3A4 (unknown origin); assay type: ADME
Cav1.2 = Cav1.2 (Homo sapiens, UniProt Q13936); assay: Inhibition of Cav1.2 (unknown origin) at 10 uM
hERG (KCNH2) = hERG (KCNH2) (Homo sapiens, UniProt Q12809); assay: Inhibition of human ERG at 10 uM
[22] = Volume of distribution at steady stare in rat at 1 mg/kg; assay type: ADME, organism-based; settings: in vivo, read-out: Vdss

Chain of Transient receptor potential cation channel subfamily A member 1 (Rattus norvegicus) (Q6RI86 whole entry): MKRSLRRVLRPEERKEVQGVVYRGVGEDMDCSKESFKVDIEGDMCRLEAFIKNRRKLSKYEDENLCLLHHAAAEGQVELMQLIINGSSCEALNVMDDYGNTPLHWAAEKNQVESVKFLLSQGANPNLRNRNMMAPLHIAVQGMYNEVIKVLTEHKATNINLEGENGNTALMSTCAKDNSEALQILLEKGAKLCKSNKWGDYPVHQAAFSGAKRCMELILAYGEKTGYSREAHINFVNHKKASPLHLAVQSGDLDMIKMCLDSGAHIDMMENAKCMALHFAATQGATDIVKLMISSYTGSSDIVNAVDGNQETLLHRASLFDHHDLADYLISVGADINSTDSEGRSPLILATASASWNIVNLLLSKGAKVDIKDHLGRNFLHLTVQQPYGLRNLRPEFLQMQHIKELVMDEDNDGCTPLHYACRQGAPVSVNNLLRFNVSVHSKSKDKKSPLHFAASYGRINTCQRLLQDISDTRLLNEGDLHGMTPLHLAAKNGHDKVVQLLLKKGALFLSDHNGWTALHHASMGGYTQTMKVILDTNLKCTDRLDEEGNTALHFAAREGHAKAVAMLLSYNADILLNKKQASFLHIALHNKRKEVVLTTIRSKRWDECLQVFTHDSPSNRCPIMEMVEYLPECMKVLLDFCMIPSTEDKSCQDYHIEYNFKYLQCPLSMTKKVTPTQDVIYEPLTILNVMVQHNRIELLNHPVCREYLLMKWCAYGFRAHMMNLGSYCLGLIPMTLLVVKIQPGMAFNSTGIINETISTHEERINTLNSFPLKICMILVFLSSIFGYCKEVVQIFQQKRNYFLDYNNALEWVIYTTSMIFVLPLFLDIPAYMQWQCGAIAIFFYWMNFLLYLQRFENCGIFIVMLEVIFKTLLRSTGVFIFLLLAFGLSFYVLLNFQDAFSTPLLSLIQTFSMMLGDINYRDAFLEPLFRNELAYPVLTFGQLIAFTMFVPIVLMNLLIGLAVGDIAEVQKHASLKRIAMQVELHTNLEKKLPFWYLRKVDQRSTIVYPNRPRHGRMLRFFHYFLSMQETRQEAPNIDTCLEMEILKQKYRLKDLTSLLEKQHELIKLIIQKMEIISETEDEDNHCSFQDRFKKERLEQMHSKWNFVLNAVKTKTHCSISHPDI
Chain of Cav1.2 (Q13936 whole entry): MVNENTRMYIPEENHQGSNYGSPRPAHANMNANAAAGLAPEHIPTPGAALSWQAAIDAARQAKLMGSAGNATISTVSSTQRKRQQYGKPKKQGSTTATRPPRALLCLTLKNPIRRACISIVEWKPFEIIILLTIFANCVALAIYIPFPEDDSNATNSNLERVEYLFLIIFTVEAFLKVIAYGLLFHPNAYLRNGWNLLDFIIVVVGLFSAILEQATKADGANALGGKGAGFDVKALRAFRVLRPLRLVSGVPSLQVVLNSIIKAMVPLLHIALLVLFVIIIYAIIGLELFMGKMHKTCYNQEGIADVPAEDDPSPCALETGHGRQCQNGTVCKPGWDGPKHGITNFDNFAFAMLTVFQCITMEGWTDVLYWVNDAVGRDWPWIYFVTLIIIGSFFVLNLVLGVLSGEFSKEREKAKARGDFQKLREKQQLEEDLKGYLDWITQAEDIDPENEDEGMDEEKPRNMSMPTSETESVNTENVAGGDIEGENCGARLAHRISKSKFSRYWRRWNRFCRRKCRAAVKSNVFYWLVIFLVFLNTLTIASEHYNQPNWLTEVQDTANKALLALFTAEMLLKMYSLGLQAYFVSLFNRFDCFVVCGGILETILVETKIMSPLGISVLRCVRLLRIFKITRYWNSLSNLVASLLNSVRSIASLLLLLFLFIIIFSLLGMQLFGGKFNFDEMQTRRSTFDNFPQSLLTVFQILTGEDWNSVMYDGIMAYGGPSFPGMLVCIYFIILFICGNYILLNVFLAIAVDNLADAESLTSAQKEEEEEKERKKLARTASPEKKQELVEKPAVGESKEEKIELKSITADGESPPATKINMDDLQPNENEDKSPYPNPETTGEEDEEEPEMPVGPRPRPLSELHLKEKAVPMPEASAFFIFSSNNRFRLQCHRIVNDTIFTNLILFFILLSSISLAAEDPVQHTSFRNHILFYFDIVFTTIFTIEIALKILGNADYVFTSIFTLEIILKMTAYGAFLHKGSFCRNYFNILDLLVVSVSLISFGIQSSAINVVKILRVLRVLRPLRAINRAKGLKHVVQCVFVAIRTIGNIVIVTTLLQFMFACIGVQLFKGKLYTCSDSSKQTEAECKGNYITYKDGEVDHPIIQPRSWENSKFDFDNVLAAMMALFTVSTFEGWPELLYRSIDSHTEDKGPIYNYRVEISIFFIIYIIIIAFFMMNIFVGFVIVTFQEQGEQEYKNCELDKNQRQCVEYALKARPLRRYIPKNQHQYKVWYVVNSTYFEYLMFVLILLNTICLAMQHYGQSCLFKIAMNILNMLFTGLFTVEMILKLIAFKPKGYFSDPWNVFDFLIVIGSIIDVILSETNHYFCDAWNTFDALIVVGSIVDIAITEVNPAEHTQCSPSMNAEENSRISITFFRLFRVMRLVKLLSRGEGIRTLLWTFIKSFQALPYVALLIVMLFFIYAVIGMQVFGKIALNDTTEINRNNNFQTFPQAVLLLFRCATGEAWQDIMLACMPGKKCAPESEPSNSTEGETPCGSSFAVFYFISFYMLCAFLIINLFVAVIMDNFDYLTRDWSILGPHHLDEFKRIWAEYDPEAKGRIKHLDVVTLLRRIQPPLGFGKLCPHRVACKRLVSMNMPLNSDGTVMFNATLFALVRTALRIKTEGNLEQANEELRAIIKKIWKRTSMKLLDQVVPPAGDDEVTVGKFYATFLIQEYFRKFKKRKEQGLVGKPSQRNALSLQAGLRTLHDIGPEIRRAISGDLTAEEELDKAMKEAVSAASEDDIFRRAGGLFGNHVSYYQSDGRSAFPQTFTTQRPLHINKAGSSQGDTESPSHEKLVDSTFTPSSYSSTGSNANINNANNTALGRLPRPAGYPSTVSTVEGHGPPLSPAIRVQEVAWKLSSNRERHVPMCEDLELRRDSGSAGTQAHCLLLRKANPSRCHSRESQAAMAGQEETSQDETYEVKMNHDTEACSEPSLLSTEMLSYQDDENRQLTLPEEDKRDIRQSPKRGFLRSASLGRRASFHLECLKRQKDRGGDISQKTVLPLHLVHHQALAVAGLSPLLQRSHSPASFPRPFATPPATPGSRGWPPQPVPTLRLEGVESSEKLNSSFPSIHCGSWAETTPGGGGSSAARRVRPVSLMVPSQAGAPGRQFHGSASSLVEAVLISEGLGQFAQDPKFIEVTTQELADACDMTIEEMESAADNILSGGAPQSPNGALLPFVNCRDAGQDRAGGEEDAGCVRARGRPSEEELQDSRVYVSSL
Chain of Transient receptor potential cation channel subfamily M member 8 (Homo sapiens) (Q7Z2W7 whole entry, looked up): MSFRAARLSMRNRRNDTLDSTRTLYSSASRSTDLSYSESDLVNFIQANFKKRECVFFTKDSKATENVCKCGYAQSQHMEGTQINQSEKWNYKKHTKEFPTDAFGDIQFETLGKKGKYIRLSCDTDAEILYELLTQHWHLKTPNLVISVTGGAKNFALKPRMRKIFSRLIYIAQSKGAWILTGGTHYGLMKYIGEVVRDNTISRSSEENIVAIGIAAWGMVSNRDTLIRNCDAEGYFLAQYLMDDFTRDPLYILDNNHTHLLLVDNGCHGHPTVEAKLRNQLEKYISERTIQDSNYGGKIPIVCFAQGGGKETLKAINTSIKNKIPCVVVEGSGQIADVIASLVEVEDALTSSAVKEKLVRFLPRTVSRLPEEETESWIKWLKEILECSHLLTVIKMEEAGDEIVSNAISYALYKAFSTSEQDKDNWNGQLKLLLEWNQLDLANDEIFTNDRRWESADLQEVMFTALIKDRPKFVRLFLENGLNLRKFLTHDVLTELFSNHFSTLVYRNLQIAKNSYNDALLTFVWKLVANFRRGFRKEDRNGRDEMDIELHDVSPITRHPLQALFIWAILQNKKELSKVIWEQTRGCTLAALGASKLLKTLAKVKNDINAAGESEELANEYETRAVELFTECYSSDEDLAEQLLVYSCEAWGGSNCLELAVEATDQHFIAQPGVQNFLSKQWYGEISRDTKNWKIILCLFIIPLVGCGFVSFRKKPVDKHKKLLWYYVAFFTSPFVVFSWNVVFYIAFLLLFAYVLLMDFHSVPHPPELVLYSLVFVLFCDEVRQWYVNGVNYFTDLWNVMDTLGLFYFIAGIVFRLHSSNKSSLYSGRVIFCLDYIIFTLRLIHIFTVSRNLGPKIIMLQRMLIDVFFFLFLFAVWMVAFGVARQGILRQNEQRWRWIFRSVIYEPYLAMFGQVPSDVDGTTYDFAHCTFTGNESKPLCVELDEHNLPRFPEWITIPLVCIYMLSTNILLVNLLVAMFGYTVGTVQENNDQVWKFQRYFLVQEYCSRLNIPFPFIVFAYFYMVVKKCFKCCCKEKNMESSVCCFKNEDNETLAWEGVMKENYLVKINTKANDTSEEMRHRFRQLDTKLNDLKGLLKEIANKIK
Chain of Cytochrome P450 3A4 (P08684 whole entry): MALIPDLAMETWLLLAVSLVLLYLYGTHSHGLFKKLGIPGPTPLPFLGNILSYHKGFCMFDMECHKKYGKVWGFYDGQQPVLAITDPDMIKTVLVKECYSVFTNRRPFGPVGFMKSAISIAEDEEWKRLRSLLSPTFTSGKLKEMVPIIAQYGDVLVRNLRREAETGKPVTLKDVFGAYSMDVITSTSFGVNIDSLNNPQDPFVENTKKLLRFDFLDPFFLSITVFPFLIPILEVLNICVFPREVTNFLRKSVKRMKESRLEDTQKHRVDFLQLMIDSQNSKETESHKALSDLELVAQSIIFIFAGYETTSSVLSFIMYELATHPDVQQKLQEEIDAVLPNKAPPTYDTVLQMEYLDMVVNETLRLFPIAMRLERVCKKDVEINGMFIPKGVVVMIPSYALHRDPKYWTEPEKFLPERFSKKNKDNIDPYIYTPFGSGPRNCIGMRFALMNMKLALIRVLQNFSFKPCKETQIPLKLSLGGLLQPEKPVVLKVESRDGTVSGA

Cn1cnc2ncn(Cc3nc([C@@H]4CO[C@@H](c5ccc(Cl)cc5)C4)no3)c(=O)c21
fraction unbound [1]: 0.171
clearance [2]: 17 mL/min/kg
pIC50 [3]: 8.13
CLhep predicted [4]: 5 mL/min/kg
CLhep predicted [5]: 29 mL/min/kg
pIC50 (Cytochrome P450 2D6): < 5.00
inhibition at 10 µM (Nav1.5): < 15%
bioavailability [6]: 90%
pIC50 [7]: 8.15
inhibition [8]: 53%
pEC50 (Rattus norvegicus): 7.28
Activity (Cavia porcellus): Dose-dependent effect
solubility kinetic [9]: 43 µM (≈ 17.8 µg/mL)
inhibition [10]: 80%
inhibition [11]: 30%
CLhep predicted [12]: 14 mL/min/kg
half-life [13]: 1.6 h
Papp A→B [14]: 16 ×10⁻⁶ cm/s
logD [15]: 1.8
inhibition [16]: inactive
inhibition [17]: 100%
fraction unbound [18]: 0.246
Vduss [19]: 8.54 L/kg
pIC50 [20]: 9.05
inhibition [21]: inactive
pIC50 (Cytochrome P450 3A4): < 5.00
inhibition at 10 µM (Cav1.2): < 15%
inhibition at 10 µM (hERG (KCNH2)): < 15%
Vd [22]: 2.1 L/kg

From ChEMBL document CHEMBL5055619, “Tetrahydrofuran-Based Transient Receptor Potential Ankyrin 1 (TRPA1) Antagonists: Ligand-Based Discovery, Activity in a Rodent Asthma Model, and Mechanism-of-Action via Cryogenic Electron Microscopy” (J Med Chem, 2021)
